{"source": "the kinase profiling compilation of Christmann-Franck et al. (2016)", "assay_in_all_cases": "KINOMEscan competition binding", "details_in_all_cases": "compound 10.0 µM", "key": {"MUSK (human)": {"molecular_target": "MUSK (human) (UniProt O15146)"}, "LTK (human)": {"molecular_target": "LTK (human) (UniProt P29376)"}, "ADCK4 (human)": {"molecular_target": "ADCK4 (human) (UniProt Q96D53)"}, "[1]": {"test_system": "RET (human), P07949 [V804L]"}, "ALK (human)": {"molecular_target": "ALK (human) (UniProt Q9UM73)"}, "GSK3B (human)": {"molecular_target": "GSK3B (human) (UniProt P49841)"}, "MAP3K13 (human)": {"molecular_target": "MAP3K13 (human) (UniProt O43283)"}, "PTK2B (human)": {"molecular_target": "PTK2B (human) (UniProt Q14289)"}, "YSK4 (human)": {"molecular_target": "YSK4 (human) (UniProt Q56UN5)"}, "MKNK1 (human)": {"molecular_target": "MKNK1 (human) (UniProt Q9BUB5)", "sequence (Q9BUB5 whole entry, looked up)": "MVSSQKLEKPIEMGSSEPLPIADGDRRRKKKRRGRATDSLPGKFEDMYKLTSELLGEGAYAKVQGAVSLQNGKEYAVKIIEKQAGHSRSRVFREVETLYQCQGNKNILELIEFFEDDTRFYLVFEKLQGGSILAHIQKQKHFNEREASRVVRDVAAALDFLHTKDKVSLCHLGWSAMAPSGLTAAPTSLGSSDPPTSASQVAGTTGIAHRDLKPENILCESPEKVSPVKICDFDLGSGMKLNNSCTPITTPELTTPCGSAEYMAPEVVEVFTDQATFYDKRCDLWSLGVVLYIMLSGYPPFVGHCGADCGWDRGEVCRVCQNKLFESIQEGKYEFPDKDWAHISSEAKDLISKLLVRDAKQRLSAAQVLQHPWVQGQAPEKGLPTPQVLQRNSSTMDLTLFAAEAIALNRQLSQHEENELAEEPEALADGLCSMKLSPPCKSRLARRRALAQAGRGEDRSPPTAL"}, "RIOK1 (human)": {"molecular_target": "RIOK1 (human) (UniProt Q9BRS2)"}, "PAK1 (human)": {"molecular_target": "PAK1 (human) (UniProt Q13153)"}, "MAPK15 (human)": {"molecular_target": "MAPK15 (human) (UniProt Q8TD08)"}, "SRPK2 (human)": {"molecular_target": "SRPK2 (human) (UniProt P78362)", "sequence (P78362 whole entry, looked up)": "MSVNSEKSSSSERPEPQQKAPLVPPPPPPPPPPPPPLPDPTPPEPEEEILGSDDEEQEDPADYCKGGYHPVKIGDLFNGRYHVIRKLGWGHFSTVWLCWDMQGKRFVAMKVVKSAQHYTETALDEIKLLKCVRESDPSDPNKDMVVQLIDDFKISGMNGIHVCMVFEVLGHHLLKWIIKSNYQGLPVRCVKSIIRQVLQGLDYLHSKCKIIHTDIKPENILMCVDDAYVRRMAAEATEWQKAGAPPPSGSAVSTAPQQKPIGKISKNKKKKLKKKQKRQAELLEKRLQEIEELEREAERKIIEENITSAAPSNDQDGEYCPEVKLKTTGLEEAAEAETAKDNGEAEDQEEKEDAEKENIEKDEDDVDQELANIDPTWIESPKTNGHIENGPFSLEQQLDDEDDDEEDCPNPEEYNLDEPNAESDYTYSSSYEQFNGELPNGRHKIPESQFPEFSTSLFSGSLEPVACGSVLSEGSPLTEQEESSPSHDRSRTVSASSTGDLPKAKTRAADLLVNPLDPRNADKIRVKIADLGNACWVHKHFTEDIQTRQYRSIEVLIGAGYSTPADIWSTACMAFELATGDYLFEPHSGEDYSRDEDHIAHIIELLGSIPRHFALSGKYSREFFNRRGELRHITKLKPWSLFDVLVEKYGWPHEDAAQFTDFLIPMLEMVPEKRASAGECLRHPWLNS"}, "ZAP70 (human)": {"molecular_target": "ZAP70 (human) (UniProt P43403)"}, "MELK (human)": {"molecular_target": "MELK (human) (UniProt Q14680)"}, "PHKG1 (human)": {"molecular_target": "PHKG1 (human) (UniProt Q16816)"}, "MAP2K4 (human)": {"molecular_target": "MAP2K4 (human) (UniProt P45985)"}, "CSNK1G1 (human)": {"molecular_target": "CSNK1G1 (human) (UniProt Q9HCP0)", "sequence (Q9HCP0 whole entry, looked up)": "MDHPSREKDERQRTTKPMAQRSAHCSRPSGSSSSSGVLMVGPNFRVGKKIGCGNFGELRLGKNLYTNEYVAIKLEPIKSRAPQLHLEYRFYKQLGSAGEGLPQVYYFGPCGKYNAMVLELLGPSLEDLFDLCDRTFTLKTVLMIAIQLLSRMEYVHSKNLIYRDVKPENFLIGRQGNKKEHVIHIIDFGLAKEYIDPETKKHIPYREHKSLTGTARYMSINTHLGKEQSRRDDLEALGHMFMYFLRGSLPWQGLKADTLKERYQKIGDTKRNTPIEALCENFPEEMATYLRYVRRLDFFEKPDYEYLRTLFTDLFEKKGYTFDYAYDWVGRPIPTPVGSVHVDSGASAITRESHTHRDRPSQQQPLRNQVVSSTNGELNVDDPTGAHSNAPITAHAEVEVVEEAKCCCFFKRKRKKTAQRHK"}, "CDC42BPG (human)": {"molecular_target": "CDC42BPG (human) (UniProt Q6DT37)", "sequence (Q6DT37 whole entry, looked up)": "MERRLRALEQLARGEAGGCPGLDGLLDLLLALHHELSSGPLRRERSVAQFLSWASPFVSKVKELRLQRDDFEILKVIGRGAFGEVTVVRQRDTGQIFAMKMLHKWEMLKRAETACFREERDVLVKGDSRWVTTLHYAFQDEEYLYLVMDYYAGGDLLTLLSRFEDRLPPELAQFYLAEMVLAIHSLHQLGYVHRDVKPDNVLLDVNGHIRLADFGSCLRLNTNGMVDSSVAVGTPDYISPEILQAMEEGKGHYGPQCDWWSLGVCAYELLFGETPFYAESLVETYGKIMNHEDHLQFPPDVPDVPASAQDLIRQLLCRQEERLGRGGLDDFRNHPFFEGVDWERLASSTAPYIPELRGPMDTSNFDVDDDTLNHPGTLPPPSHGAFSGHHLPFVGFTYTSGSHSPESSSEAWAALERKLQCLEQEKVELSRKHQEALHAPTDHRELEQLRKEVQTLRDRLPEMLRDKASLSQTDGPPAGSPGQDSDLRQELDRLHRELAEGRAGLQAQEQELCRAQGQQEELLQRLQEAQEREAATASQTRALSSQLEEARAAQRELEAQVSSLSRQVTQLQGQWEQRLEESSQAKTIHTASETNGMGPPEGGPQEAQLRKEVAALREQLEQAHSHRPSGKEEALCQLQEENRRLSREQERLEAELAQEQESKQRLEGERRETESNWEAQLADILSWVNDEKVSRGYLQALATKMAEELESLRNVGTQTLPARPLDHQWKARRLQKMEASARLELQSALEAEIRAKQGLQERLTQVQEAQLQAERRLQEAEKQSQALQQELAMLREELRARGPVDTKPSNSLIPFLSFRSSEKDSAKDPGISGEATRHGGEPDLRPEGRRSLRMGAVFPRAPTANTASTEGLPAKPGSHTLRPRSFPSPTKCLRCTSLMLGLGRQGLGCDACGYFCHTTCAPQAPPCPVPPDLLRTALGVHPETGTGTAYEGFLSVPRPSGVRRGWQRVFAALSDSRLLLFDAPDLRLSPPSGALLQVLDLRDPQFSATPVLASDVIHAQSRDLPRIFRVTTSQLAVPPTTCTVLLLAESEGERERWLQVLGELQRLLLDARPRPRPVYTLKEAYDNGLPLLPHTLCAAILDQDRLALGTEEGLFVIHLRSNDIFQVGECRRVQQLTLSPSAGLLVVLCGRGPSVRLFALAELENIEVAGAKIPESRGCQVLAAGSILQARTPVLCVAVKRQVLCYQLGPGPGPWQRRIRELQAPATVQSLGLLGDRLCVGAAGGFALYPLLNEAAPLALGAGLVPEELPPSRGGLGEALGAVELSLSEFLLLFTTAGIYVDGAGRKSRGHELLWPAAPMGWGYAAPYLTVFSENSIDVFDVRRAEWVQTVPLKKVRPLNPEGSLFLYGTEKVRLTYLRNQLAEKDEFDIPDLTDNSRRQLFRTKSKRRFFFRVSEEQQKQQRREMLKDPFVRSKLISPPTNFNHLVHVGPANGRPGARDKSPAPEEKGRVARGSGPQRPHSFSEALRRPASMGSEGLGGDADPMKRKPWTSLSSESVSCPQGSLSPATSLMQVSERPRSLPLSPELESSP"}, "EPHA1 (human)": {"molecular_target": "EPHA1 (human) (UniProt P21709)"}, "MKNK2 (human)": {"molecular_target": "MKNK2 (human) (UniProt Q9HBH9)"}, "EPHA2 (human)": {"molecular_target": "EPHA2 (human) (UniProt P29317)", "sequence (P29317 whole entry, looked up)": "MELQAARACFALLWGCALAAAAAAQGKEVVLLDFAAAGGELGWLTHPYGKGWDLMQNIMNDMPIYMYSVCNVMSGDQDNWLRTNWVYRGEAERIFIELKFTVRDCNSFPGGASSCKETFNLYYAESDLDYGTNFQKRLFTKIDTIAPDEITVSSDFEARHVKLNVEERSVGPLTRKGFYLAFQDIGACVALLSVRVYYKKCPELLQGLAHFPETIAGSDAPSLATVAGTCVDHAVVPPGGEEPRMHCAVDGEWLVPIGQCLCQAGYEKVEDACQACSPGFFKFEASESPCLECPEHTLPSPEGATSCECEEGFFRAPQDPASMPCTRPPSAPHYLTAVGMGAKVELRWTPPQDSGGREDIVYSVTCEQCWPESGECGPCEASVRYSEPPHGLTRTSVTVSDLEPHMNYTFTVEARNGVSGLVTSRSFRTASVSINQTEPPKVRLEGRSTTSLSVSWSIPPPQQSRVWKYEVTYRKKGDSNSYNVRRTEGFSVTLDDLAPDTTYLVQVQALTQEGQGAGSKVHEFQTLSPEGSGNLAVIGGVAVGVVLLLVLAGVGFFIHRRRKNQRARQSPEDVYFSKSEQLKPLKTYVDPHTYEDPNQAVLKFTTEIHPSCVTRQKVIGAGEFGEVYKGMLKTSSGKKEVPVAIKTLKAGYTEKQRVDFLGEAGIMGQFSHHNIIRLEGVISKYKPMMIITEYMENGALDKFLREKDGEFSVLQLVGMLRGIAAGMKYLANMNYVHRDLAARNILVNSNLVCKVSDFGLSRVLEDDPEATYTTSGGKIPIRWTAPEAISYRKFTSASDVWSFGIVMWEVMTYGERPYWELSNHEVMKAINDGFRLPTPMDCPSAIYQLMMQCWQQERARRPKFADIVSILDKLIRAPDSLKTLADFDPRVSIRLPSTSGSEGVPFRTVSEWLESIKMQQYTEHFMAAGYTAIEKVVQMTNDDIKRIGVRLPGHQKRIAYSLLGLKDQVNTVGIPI"}, "CDK7 (human)": {"molecular_target": "CDK7 (human) (UniProt P50613)"}, "ANKK1 (human)": {"molecular_target": "ANKK1 (human) (UniProt Q8NFD2)", "sequence (Q8NFD2 whole entry, looked up)": "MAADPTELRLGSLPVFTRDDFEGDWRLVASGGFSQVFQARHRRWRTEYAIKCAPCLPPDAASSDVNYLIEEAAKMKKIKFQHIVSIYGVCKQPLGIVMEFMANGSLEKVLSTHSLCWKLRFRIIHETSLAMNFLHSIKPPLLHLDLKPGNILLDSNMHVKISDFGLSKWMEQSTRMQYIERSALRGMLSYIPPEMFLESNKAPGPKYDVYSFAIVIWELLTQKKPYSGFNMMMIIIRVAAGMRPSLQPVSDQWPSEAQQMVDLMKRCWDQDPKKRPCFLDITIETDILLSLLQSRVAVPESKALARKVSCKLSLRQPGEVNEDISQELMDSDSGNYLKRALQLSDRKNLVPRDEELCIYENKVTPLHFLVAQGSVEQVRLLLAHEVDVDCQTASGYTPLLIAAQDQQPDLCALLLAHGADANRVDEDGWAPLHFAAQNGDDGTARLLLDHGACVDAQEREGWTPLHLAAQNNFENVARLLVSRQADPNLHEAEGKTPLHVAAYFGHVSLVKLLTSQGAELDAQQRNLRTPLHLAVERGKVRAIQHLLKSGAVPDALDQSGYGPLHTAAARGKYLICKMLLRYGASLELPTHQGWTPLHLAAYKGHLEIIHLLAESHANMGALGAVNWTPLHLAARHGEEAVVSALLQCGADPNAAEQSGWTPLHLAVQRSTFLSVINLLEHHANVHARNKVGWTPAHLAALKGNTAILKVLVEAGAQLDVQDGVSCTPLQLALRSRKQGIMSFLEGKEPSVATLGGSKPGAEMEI"}, "CAMK2D (human)": {"molecular_target": "CAMK2D (human) (UniProt Q13557)"}, "SGK110 (human)": {"molecular_target": "SGK110 (human) (UniProt P0C264)"}, "PRKCI (human)": {"molecular_target": "PRKCI (human) (UniProt P41743)"}, "RPS6KA2 KD2 (human)": {"molecular_target": "RPS6KA2 KD2 (human) (UniProt Q15349)"}, "DCLK2 (human)": {"molecular_target": "DCLK2 (human) (UniProt Q8N568)"}, "PLK2 (human)": {"molecular_target": "PLK2 (human) (UniProt Q9NYY3)"}, "MAP4K3 (human)": {"molecular_target": "MAP4K3 (human) (UniProt Q8IVH8)"}, "CDK8 (human)": {"molecular_target": "CDK8 (human) (UniProt P49336)"}, "PLK1 (human)": {"molecular_target": "PLK1 (human) (UniProt P53350)"}, "FER (human)": {"molecular_target": "FER (human) (UniProt P16591)"}, "DYRK1B (human)": {"molecular_target": "DYRK1B (human) (UniProt Q9Y463)"}, "INSRR (human)": {"molecular_target": "INSRR (human) (UniProt P14616)"}, "PAK2 (human)": {"molecular_target": "PAK2 (human) (UniProt Q13177)"}, "STK32A (human)": {"molecular_target": "STK32A (human) (UniProt Q8WU08)"}, "HCK (human)": {"molecular_target": "HCK (human) (UniProt P08631)"}}, "data": [{"smiles": "CC1=C(C(=O)Nc2cc3cn[nH]c3cc2F)C(c2ccc(C(F)(F)F)cc2)CC(=O)N1", "note": "(stereo not given)", "values": [{"measurement": "kinase still bound, per cent of control", "setting": "MUSK (human)", "value": 95, "unit": "%"}, {"measurement": "kinase still bound, per cent of control", "setting": "LTK (human)", "value": 100, "unit": "%"}, {"measurement": "kinase still bound, per cent of control", "setting": "ADCK4 (human)", "value": 94, "unit": "%"}, {"measurement": "kinase still bound, per cent of control", "setting": "[1]", "value": 39, "unit": "%"}, {"measurement": "kinase still bound, per cent of control", "setting": "ALK (human)", "value": 77, "unit": "%"}, {"measurement": "kinase still bound, per cent of control", "setting": "GSK3B (human)", "value": 89, "unit": "%"}, {"measurement": "kinase still bound, per cent of control", "setting": "MAP3K13 (human)", "value": 83, "unit": "%"}, {"measurement": "kinase still bound, per cent of control", "setting": "PTK2B (human)", "value": 100, "unit": "%"}, {"measurement": "kinase still bound, per cent of control", "setting": "YSK4 (human)", "value": 50, "unit": "%"}, {"measurement": "kinase still bound, per cent of control", "setting": "MKNK1 (human)", "value": 100, "unit": "%"}, {"measurement": "kinase still bound, per cent of control", "setting": "RIOK1 (human)", "value": 100, "unit": "%"}, {"measurement": "kinase still bound, per cent of control", "setting": "PAK1 (human)", "value": 81, "unit": "%"}, {"measurement": "kinase still bound, per cent of control", "setting": "MAPK15 (human)", "value": 80, "unit": "%"}, {"measurement": "kinase still bound, per cent of control", "setting": "SRPK2 (human)", "value": 100, "unit": "%"}, {"measurement": "kinase still bound, per cent of control", "setting": "ZAP70 (human)", "value": 100, "unit": "%"}, {"measurement": "kinase still bound, per cent of control", "setting": "MELK (human)", "value": 99, "unit": "%"}, {"measurement": "kinase still bound, per cent of control", "setting": "PHKG1 (human)", "value": 100, "unit": "%"}, {"measurement": "kinase still bound, per cent of control", "setting": "MAP2K4 (human)", "value": 71, "unit": "%"}, {"measurement": "kinase still bound, per cent of control", "setting": "CSNK1G1 (human)", "value": 100, "unit": "%"}, {"measurement": "kinase still bound, per cent of control", "setting": "CDC42BPG (human)", "value": 83, "unit": "%"}, {"measurement": "kinase still bound, per cent of control", "setting": "EPHA1 (human)", "value": 77, "unit": "%"}, {"measurement": "kinase still bound, per cent of control", "setting": "MKNK2 (human)", "value": 62, "unit": "%"}, {"measurement": "kinase still bound, per cent of control", "setting": "EPHA2 (human)", "value": 84, "unit": "%"}, {"measurement": "kinase still bound, per cent of control", "setting": "CDK7 (human)", "value": 58, "unit": "%"}, {"measurement": "kinase still bound, per cent of control", "setting": "ANKK1 (human)", "value": 97, "unit": "%"}, {"measurement": "kinase still bound, per cent of control", "setting": "CAMK2D (human)", "value": 100, "unit": "%"}, {"measurement": "kinase still bound, per cent of control", "setting": "SGK110 (human)", "value": 59, "unit": "%"}, {"measurement": "kinase still bound, per cent of control", "setting": "PRKCI (human)", "value": 72, "unit": "%"}, {"measurement": "kinase still bound, per cent of control", "setting": "RPS6KA2 KD2 (human)", "value": 94, "unit": "%"}, {"measurement": "kinase still bound, per cent of control", "setting": "DCLK2 (human)", "value": 87, "unit": "%"}, {"measurement": "kinase still bound, per cent of control", "setting": "PLK2 (human)", "value": 86, "unit": "%"}, {"measurement": "kinase still bound, per cent of control", "setting": "MAP4K3 (human)", "value": 77, "unit": "%"}, {"measurement": "kinase still bound, per cent of control", "setting": "CDK8 (human)", "value": 79, "unit": "%"}, {"measurement": "kinase still bound, per cent of control", "setting": "PLK1 (human)", "value": 96, "unit": "%"}, {"measurement": "kinase still bound, per cent of control", "setting": "FER (human)", "value": 100, "unit": "%"}, {"measurement": "kinase still bound, per cent of control", "setting": "DYRK1B (human)", "value": 84, "unit": "%"}, {"measurement": "kinase still bound, per cent of control", "setting": "INSRR (human)", "value": 99, "unit": "%"}, {"measurement": "kinase still bound, per cent of control", "setting": "PAK2 (human)", "value": 88, "unit": "%"}, {"measurement": "kinase still bound, per cent of control", "setting": "STK32A (human)", "value": 52, "unit": "%"}, {"measurement": "kinase still bound, per cent of control", "setting": "HCK (human)", "value": 41, "unit": "%"}]}, {"smiles": "CCN1CCN(Cc2ccc(NC(=O)c3ccc(C)c(/C=C/c4cnc5[nH]ccc5c4OC)c3)cc2C(F)(F)F)CC1", "values": [{"measurement": "kinase still bound, per cent of control", "setting": "MUSK (human)", "value": 0, "unit": "%"}, {"measurement": "kinase still bound, per cent of control", "setting": "LTK (human)", "value": 62, "unit": "%"}, {"measurement": "kinase still bound, per cent of control", "setting": "ADCK4 (human)", "value": 100, "unit": "%"}, {"measurement": "kinase still bound, per cent of control", "setting": "[1]", "value": 0.1, "unit": "%"}, {"measurement": "kinase still bound, per cent of control", "setting": "ALK (human)", "value": 51, "unit": "%"}, {"measurement": "kinase still bound, per cent of control", "setting": "GSK3B (human)", "value": 99, "unit": "%"}, {"measurement": "kinase still bound, per cent of control", "setting": "MAP3K13 (human)", "value": 20, "unit": "%"}, {"measurement": "kinase still bound, per cent of control", "setting": "PTK2B (human)", "value": 0.75, "unit": "%"}, {"measurement": "kinase still bound, per cent of control", "setting": "YSK4 (human)", "value": 0.2, "unit": "%"}, {"measurement": "kinase still bound, per cent of control", "setting": "MKNK1 (human)", "value": 68, "unit": "%"}, {"measurement": "kinase still bound, per cent of control", "setting": "RIOK1 (human)", "value": 0.75, "unit": "%"}, {"measurement": "kinase still bound, per cent of control", "setting": "PAK1 (human)", "value": 100, "unit": "%"}, {"measurement": "kinase still bound, per cent of control", "setting": "MAPK15 (human)", "value": 67, "unit": "%"}, {"measurement": "kinase still bound, per cent of control", "setting": "SRPK2 (human)", "value": 28, "unit": "%"}, {"measurement": "kinase still bound, per cent of control", "setting": "ZAP70 (human)", "value": 52, "unit": "%"}, {"measurement": "kinase still bound, per cent of control", "setting": "MELK (human)", "value": 20, "unit": "%"}, {"measurement": "kinase still bound, per cent of control", "setting": "PHKG1 (human)", "value": 100, "unit": "%"}, {"measurement": "kinase still bound, per cent of control", "setting": "MAP2K4 (human)", "value": 76, "unit": "%"}, {"measurement": "kinase still bound, per cent of control", "setting": "CSNK1G1 (human)", "value": 98, "unit": "%"}, {"measurement": "kinase still bound, per cent of control", "setting": "CDC42BPG (human)", "value": 16, "unit": "%"}, {"measurement": "kinase still bound, per cent of control", "setting": "EPHA1 (human)", "value": 2, "unit": "%"}, {"measurement": "kinase still bound, per cent of control", "setting": "MKNK2 (human)", "value": 2.7, "unit": "%"}, {"measurement": "kinase still bound, per cent of control", "setting": "EPHA2 (human)", "value": 1.7, "unit": "%"}, {"measurement": "kinase still bound, per cent of control", "setting": "CDK7 (human)", "value": 41, "unit": "%"}, {"measurement": "kinase still bound, per cent of control", "setting": "ANKK1 (human)", "value": 5.7, "unit": "%"}, {"measurement": "kinase still bound, per cent of control", "setting": "CAMK2D (human)", "value": 100, "unit": "%"}, {"measurement": "kinase still bound, per cent of control", "setting": "SGK110 (human)", "value": 41, "unit": "%"}, {"measurement": "kinase still bound, per cent of control", "setting": "PRKCI (human)", "value": 100, "unit": "%"}, {"measurement": "kinase still bound, per cent of control", "setting": "RPS6KA2 KD2 (human)", "value": 42, "unit": "%"}, {"measurement": "kinase still bound, per cent of control", "setting": "DCLK2 (human)", "value": 100, "unit": "%"}, {"measurement": "kinase still bound, per cent of control", "setting": "PLK2 (human)", "value": 60, "unit": "%"}, {"measurement": "kinase still bound, per cent of control", "setting": "MAP4K3 (human)", "value": 14, "unit": "%"}, {"measurement": "kinase still bound, per cent of control", "setting": "CDK8 (human)", "value": 21, "unit": "%"}, {"measurement": "kinase still bound, per cent of control", "setting": "PLK1 (human)", "value": 100, "unit": "%"}, {"measurement": "kinase still bound, per cent of control", "setting": "FER (human)", "value": 27, "unit": "%"}, {"measurement": "kinase still bound, per cent of control", "setting": "DYRK1B (human)", "value": 27, "unit": "%"}, {"measurement": "kinase still bound, per cent of control", "setting": "INSRR (human)", "value": 100, "unit": "%"}, {"measurement": "kinase still bound, per cent of control", "setting": "PAK2 (human)", "value": 100, "unit": "%"}, {"measurement": "kinase still bound, per cent of control", "setting": "STK32A (human)", "value": 100, "unit": "%"}, {"measurement": "kinase still bound, per cent of control", "setting": "HCK (human)", "value": 0.45, "unit": "%"}]}]}
